# From US20190055517A1, “Cell Line of M2c Macrophage and Its Applications” (National Pingtung University of Science and Technology, priority 2017, published 2019)
# How the values were obtained:
# [1] = test system: M2 cell line from murine bone marrow; assay: Efferocytosis of CFSE-marked apoptotic cells by macrophages (flow cytometry PE-MERTK / CFSE); format: cell-based; conditions: apoptotic cells : M2 3:2, 2 hours, p<0.05, FIG. 21
# Experimental: Efficacy evaluation of apoptotic cells efferocytosis in macrophages: method of the evaluation for effectiveness of apoptotic cells efferocytosis in M2 macrophage induced differentiated by different drugs were slightly modified based on previous studies (Li et al., Yancey et al., and Jehle et al; Liu st al and Lilis at al 2008). Detail steps are described below. Use 3 μM CFSE Cell Trace (Thermofisher, USA) to mark RAW264.7 macrophage cell line for 20 minutes under 37° C., then wash with PBS. Culture cells for 24 hours, then use the 1.5 mM H2O2 following the aforementioned steps to induce RAW264.7 macrophage cell to differentiate into apoptotic cells. […] Lastly, use flow cytometry (FACS BD ARIA II, BD Bioscience, USA) to examine fluorescence performance, if both PE-MERTK and CFSE appear positive, the cell will be identified as the M2C macrophages that efferocytosed the aforementioned apoptotic cells.
# Results of fluorescence expression of stained apoptotic cells, macrophages and efferocytotic macrophages detected by flow cytometry are shown in FIG. 20. Apoptotic cells induced by H2O2 (1.5 mM) and express FITC fluorescence after FITC-CFSE staining are distributed in P4 region. Differentiated M2 macrophage expresses MERTK are detected by the expressed PE fluorescence after PE-MERTK staining, which is distributed in P5 region. […]
# [2] = test system: M1 and M2 macrophage derived from Raw264.7 cell line; assay: mRNA expression of VEGF family, VEGF receptor and PD-L1 by RT-qPCR in Raw264.7 derived macrophages; format: cell-based, murine
# Experimental: In this example, experiment was performed to observe if baicalin can induce expression of VEGF family and PD-L1 in M1 and M2 macrophage derived from Raw264.7 cell line (ATCC, USA). M1 macrophage obtained from treating Raw264.7 macrophage with LPS (1 μg/ml, Sigma-Aldrich) for 2 hours, and M0 macrophage (control group) cultured in simple RPMI 1640 (10% FCS) medium, are respectively cultured in RPMI 1640 (10% FCS) medium with either Baicalin (50 μM, Tokyo Chemical Industry, Japan) or […] (10 ng/ml, Cell Guidance System, Cambridge, UK). Collect the cells after 24/48/72 hours of cell culturing. Then observe the mRNA expression level of VEGF family, VEGF receptor and PD-L1 using reverse transcription-real time PCR (RT-qPCR).
# murine M2 macrophage = assay: Macrophage cell morphology under microscope; format: cell-based; conditions: versus M-CSF control and comparison 2, FIG. 4
# Experimental: Embodiment 1 is prepared by the steps described above, isolate monocytes from murine bone marrow and use M-CSF to induce differentiation of M2 macrophage, and then use baicalin to induce M2C macrophage polarization. In comparison 1, incubate murine M2 macrophage in RPMI 1640 (10% FCS) containing LPS (lipopolysaccharide, 1 μg/ml, Sigma-Aldrich) for 2 hours. In comparison 2, incubate murine M2 macrophage in medium containing IL-4 ([…] Guidance System, Cambridge, UK) for 24 hours. The control group of M2 macrophage is incubated in RPMI 1640 (10% FCS) without any drugs. The conditions are shown below in chart 2.
# FIG. 2˜4 show results of macrophage phenotypes analysed by flow cytometry.
# [3] = baicalin 50 μM, 24/48/72 hours, versus groups without baicalin, FIG. 10
# [4] = versus IL-4 treated group, same treatment duration, p<0.05, FIG. 11
structure (smiles),measurement,setting,value
O=C(O)[C@H]1O[C@@H](Oc2cc3oc(-c4ccccc4)cc(=O)c3c(O)c2O)[C@H](O)[C@@H](O)[C@@H]1O [Baicalin],mean fluorescence intensity of MERTK of single M2 macrophage,[1]; cells expressing CFSE,significantly higher than other drug treated groups and control group
same,mean fluorescence intensity of CFSE of single M2 macrophage,[1]; cells expressing MERTK,significantly higher than other drug treated groups and control group
same,VEGF-A mRNA expression level,"[2]; baicalin 50 μM, 24/48/72 hours, versus M1, M2 macrophages without baicalin treatment (LPS, control), FIG. 9",higher
same,VEGFR-1 mRNA expression level,[2]; [3],higher
same,VEGFR-2 mRNA expression level,[2]; [3],higher
same,VEGF-A mRNA expression level,[2]; [4],significantly higher
same,VEGFR1 mRNA expression level,[2]; [4],significantly higher
same,VEGFR2 mRNA expression level,[2]; [4],significantly higher
same,PD-L1 mRNA expression level,"[2]; versus M1, M2 macrophages without baicalin treatment, p<0.05, FIG. 12",higher
same,morphology of macrophages,murine M2 macrophage,ellipse instead of spindle shaped
